The test deals with T1, JsTPS3 (GST-JsTPS3) (Jasminum sambac, UniProt A0A8T9EC85).
T1 construct: gene TPS3; full-length CDS in pGEX-6p-1, N-terminal GST tag kept, E. coli Rosetta (DE3), ~98 kDa with tag
T1 sequence (A0A8T9EC85 1-540): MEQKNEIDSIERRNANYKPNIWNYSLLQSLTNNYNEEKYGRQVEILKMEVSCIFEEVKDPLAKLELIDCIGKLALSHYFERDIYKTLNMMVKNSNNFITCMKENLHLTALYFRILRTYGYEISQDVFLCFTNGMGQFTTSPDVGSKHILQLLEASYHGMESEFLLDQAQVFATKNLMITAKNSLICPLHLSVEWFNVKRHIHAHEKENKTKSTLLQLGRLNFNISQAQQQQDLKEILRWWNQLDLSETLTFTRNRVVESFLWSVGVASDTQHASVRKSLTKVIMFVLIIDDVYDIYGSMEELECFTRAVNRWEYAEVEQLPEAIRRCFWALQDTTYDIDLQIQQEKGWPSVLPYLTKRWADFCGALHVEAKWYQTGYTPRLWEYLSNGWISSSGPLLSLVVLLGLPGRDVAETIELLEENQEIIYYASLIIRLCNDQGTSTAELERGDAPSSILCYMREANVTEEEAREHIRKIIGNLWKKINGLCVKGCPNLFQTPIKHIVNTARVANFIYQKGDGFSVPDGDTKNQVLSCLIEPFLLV
Briefly: GC-Orbitrap MS detection of trans-beta-ocimene and beta-ocimene formed. The format is biochemical. Particulars: 60 uM GPP; 30 mM HEPES pH 7.5, 5 mM DTT, 25 mM MgCl2; 30 °C 1 h, then 45 °C 15 min; 10 or 15 ug enzyme in 1 ml.

On to `CC(C)=CCC/C(C)=C/COP(=O)(O)OP(=O)(O)O` [GPP, geranyl pyrophosphate], for which the “GC-Orbitrap MS detection of trans-beta-ocimene and beta-ocimene formed” value was “recombinant JsTPS3 protein exerts TPS activity by catalyzing GPP into trans-β-ocimene and β-ocimene”.
